Laboratory results published in patent EP4125905B1, “REGIMEN FOR TREATING A NEISSERIA GONORRHOEAE INFECTION WITH GEPOTIDACIN” (GlaxoSmithKline Intellectual Property Development Limited, priority 2020, dated 2021).
In brackets after ≈: the same amount, converted by molar mass. Where two headings read alike, the source gives them in different places.

Tests used:
NG clinical isolate [1] = assay: microbe, parasite or virus in culture; assay type: cell-based; settings: Neisseria gonorrhoeae
NG isolate = assay type: cell-based, Neisseria gonorrhoeae
Procedure: The results were discussed in VanScoy BD et al., A Hollow-Fiber Infection Model to Evaluate the Prevention of On- Therapy Resistance of Neisseria gonorrhoeae to Gepotidacin.
10 mL of an initial bacterial density of 10^6 colony forming units (CFU)/mL was inoculated into the hollow-fiber cartridge (Fibercell Systems, Frederick, MD), utilizing modified FB medium.
Samples were collected for observation of simulated pharmacokinetic profiles and enumeration of bacterial burden over the study duration. All bacterial samples were plated on drug-free and agar supplemented with 2 x the agar MIC value of each respective challenge compound.

[2] = Plasma and pulmonary (ELF, AM) pharmacokinetics after intravenous gepotidacin in healthy adult subjects; assay type: in vivo, human
Procedure: (§1) Gepotidacin exposures were assessed in plasma and other matrices, such as urine, saliva, epithelial lining fluid (ELF), Alveolar Macrophages (AM), cervix, rectum and pharynx, as follows: • 1. Plasma, Epithelial Lining Fluid (ELF) and Alveolar Macrophage (AM) samples: A study to evaluate plasma and pulmonary pharmacokinetics (PK) following intravenous administration of gepotidacin in healthy adult subjects was conducted (see M Hossain, EF Dumont. Population Pharmacokinetic Modeling of Plasma and Epithelial Lining Fluid Data for a Novel Antimicrobial Compound. 54th Annual Interscience Conference on Antimicrobial Agents and Chemotherapy Meeting, 5-9 September 2014, Washington, D.C., USA). • 2. Saliva, Urine and plasma samples: • a. A single-dose study to assess the PK of oral gepotidacin in male and female adult participants with varying degrees of hepatic impairment and in matched control participants with normal hepatic function (J. Hands et al. Pharmacokinetics of Gepotidacin in Subjects with Hepatic Impairment. ID Week, 2-6 October 2019, Washington DC, USA) • b. A single-dose study to assess the PK of gepotidacin in adult subjects with varying degrees of renal impairment and in matched control subjects with normal renal function • 3. Urine, plasma, cervix, rectum and pharynx swabs: In a Phase 2a, single-center, single-arm, open-label study in the Unites States from July 2018 to January 2019 (see Overcash et al., Open Forum Infectious Diseases, Volume 6, Issue Supplement 2, October 2019, Page S539, https://doi.org/10.1093/ofid/ofz360.1343), a total of 22 female participants with uncomplicated Urinary Tract Infection (uUTI) were enrolled and evaluated for pharmacokinetics (PK), safety, and clinical efficacy. Participants were confined to the clinic from baseline (Days -1 to 1 predose) through on-therapy (Days 1 to 5) and returned as outpatients for test-of-cure (TOC; Days 10 to 13) and follow-up (Day 28t3). Participants received oral gepotidacin 1,500 mg twice daily (BID) for 5 days. […] The majority of participants were white, age ranged from 19 to 60 years, and body mass index ranged from 20.9 to 37.9 kg/m^2. The number of past uUTI episodes ranged from 0 to 10 over the past 12 months across participants; the majority of participants reported ≤2 episodes. The mean total clinical symptom score at baseline was 7.9 (range: 4 to 12). All participants reported frequency and urgency, and all but 1 participant (5%) reported dysuria. Gepotidacin exposures in urine, cervix, rectum and pharynx were assessed.
Plasma, Epithelial Lining Fluid (ELF) and Alveolar Macrophage (AM) PK were assessed following a single IV infusion of 1000 mg gepotidacin over 2 hours. […] Concentrations in AM and ELF changed in a similar manner as in plasma over the 12-hour sampling period.

[3] = Single-dose saliva, urine and plasma PK of oral gepotidacin in hepatic impairment and matched controls; assay type: in vivo, human; settings: for urinary exposure (AUC[0-48]) relative to matched healthy controls: 1500 mg orally
Procedure: Gepotidacin exposures were assessed in plasma and other matrices, such as urine, saliva, epithelial lining fluid (ELF), Alveolar Macrophages (AM), cervix, rectum and pharynx, as follows: • 1. Plasma, Epithelial Lining Fluid (ELF) and Alveolar Macrophage (AM) samples: A study to evaluate plasma and pulmonary pharmacokinetics (PK) following intravenous administration of gepotidacin in healthy adult subjects was conducted (see M Hossain, EF Dumont. Population Pharmacokinetic Modeling of Plasma and Epithelial Lining Fluid Data for a Novel Antimicrobial Compound. 54th Annual Interscience Conference on Antimicrobial Agents and Chemotherapy Meeting, 5-9 September 2014, Washington, D.C., USA). • 2. Saliva, Urine and plasma samples: • a. A single-dose study to assess the PK of oral gepotidacin in male and female adult participants with varying degrees of hepatic impairment and in matched control participants with normal hepatic function (J. Hands et al. Pharmacokinetics of Gepotidacin in Subjects with Hepatic Impairment. ID Week, 2-6 October 2019, Washington DC, USA) • b. A single-dose study to assess the PK of gepotidacin in adult subjects with varying degrees of renal impairment and in matched control subjects with normal renal function • 3. Urine, plasma, cervix, rectum and pharynx swabs: In a Phase 2a, single-center, single-arm, open-label study in the Unites States from July 2018 to January 2019 (see Overcash et al., Open Forum Infectious Diseases, Volume 6, Issue Supplement 2, October 2019, Page S539, https://doi.org/10.1093/ofid/ofz360.1343), a total of 22 female participants with uncomplicated Urinary Tract Infection (uUTI) were enrolled and evaluated for pharmacokinetics (PK), safety, and clinical efficacy. […] Gepotidacin exposures in urine, cervix, rectum and pharynx were assessed.
(§2) Saliva, Urine and Plasma concentrations were determined after administration of gepotidacin 750 mg IV (healthy and renally impaired subjects) and 1500 mg orally (healthy and hepatically impaired subjects, as well as uUTI patients). […]

[4] = Single-dose saliva, urine and plasma PK of gepotidacin in renal impairment and matched controls; assay type: in vivo, human
Procedure: as §1, §2

[5] = Phase 2a study in female participants with uUTI: urine, plasma, cervical, rectal and pharyngeal swab PK and safety; assay type: in vivo, human
Procedure: as §1
Plasma, cervix, rectum and pharynx swabs were collected after administration of gepotidacin 1500 mg BID to uUTI patients. […] TABLE 1 Summary of gepotidacin cervical, rectal, pharyngeal, and free plasma concentration time data (µg/ml) (pharmacokinetic population)

NG clinical isolate [6] = assay: MIC determination in fastidious broth (FB) medium modified to lack agarose; assay type: cell-based; settings: Neisseria gonorrhoeae, read-out: gepotidacin broth MIC
Procedure: The NG clinical isolate evaluated was known to be ciprofloxacin-resistant (minimum inhibitory concentration [MIC]= 2 mg/L), susceptible to ceftriaxone (MIC = 0.004 mg/L), and with a gepotidacin agar/broth MIC of 1/0.5 mg/L. The isolate was collected during the Phase 2 clinical study mentioned above, and contained the mutation, ParC D86N.
In order to evaluate the MIC of each challenge compound under the liquid conditions utilized in the HFIM, MIC values were determined using fastidious broth (FB) medium modified to lack agarose.

[7] = Safety and pharmacokinetics in healthy adults and adolescents; assay type: in vivo, human
Procedure: Healthy adults and adolescents within the age ranges of 19-64 and 12-17 years old, respectively, participated in the study.
In Part 1 of the study, gepotidacin was administered with food to healthy adults (≥ 18 years) in period 1 (1500 mg oral single dose), followed by period 2 (3000 mg x 2 oral doses Q12h) and period 3 (3000 mg x 2 oral doses Q6h).
In Part 2 of the study, gepotidacin was administered with food to adolescents (12 to < 18 years) at the same dose regimens as period 1 (1500 mg oral single dose) and period 3 (3000 mg x 2 oral doses Q6h).

urogenital NG = settings: cited from earlier work
urogenital NG isolates = settings: cited from earlier work
[8] = single IV infusion of 1000 mg over 2 hours, AM versus ELF
[9] = 1500 mg BID, Day 4, 2 hours postdose
[10] = Period 1, 1500 mg oral single dose

CO/N=C(\C(=O)N[C@@H]1C(=O)N2C(C(=O)O)=C(CSc3nc(=O)c(=O)[nH]n3C)CS[C@H]12)c1csc(N)n1 [ceftriaxone, reference compound]
MIC (NG clinical isolate [1]; read-out: minimum inhibitory concentration [MIC]): 0.004 µg/mL (≈ 0.00721 µM) | performance of controls in the hollow fibre infection model (NG isolate; isolate resistant to ciprofloxacin and susceptible to ceftriaxone, simulated 0.5 g oral ciprofloxacin, 0.25 g IM ceftriaxone): performed as expected

O=c1ccc2ncc(=O)n3c2n1C[C@H]3CN1CCC(NCc2cc3c(cn2)OCCC3)CC1 [gepotidacin, (2R)-2-({4-[(3,4-Dihydro-2H-pyrano[2,3-c]pyridin-6-ylmethyl)amino]-1-piperidinyl}methyl)-1,2-dihydro-3H,8H-2a,5,8a-triazaacenaphthylene-3,8-dione]
Kp ([2]; human, alveolar macrophages / free plasma, single IV infusion of 1000 mg over 2 hours, read-out: AUC(0-12) ratio of AM to free plasma): 178 | Kp ([2]; human, epithelial lining fluid / free plasma, single IV infusion of 1000 mg over 2 hours, read-out: AUC(0-12) ratio of ELF to free plasma): 1.84 | fraction unbound ([2]; human, plasma, read-out: gepotidacin free fraction): 0.67 | AM exposure AUC(0-12), higher than in ELF [2, 8]: ~97 fold | AM exposure Cmax, higher than in ELF [2, 8]: approximately 120 fold | Kp ([3]; human, saliva / unbound plasma, stated across the renal and hepatic impairment studies, read-out: ratio of saliva AUC to unbound plasma AUC (RAUC)): ≥ 0.75 | urinary exposure (AUC[0-48]) relative to matched healthy controls ([3]; moderate hepatic impairment): approximately 3.2 fold | urinary exposure (AUC[0-48]) relative to matched healthy controls ([3]; severe hepatic impairment): ~3.9 fold | gepotidacin dose excreted in the urine ([4]; ESRD subjects on hemodialysis): Less than 2% | gepotidacin dose removed in the urine (fe%) ([4]; End-Stage Renal Disease (ESRD) subjects not on hemodialysis): 7.9% | gepotidacin dose removed in the urine (fe%) ([4]; moderate renal impairment subjects): 22.1% | gepotidacin dose removed in the urine (fe%) ([4]; normal renal function subjects): 37.4% | Cervical concentration, Maximum [5, 9]: 4.25 µg/mL | Cervical concentration, Mean [5, 9]: 1.03 µg/mL | Cervical concentration, Minimum [5, 9]: 0.0190 µg/mL | Free plasma concentration, Maximum [5, 9]: 7500 ng/mL | Free plasma concentration, Mean [5, 9]: 3940 ng/mL | Free plasma concentration, Minimum [5, 9]: 938 ng/mL | Pharyngeal concentration, Maximum [5, 9]: 0.527 µg/mL | Pharyngeal concentration, Mean [5, 9]: 0.140 µg/mL | Pharyngeal concentration, Minimum [5, 9]: 0.0118 µg/mL | Rectal concentration, Maximum [5, 9]: 90.90 µg/mL | Rectal concentration, Mean [5, 9]: 12.3 µg/mL | Rectal concentration, Minimum [5, 9]: 0.0989 µg/mL | Cervical concentration, Maximum ([5]; 1500 mg BID, Day 4, Predose): 5.94 µg/mL | Cervical concentration, Mean ([5]; 1500 mg BID, Day 4, Predose): 1.30 µg/mL | Cervical concentration, Minimum ([5]; 1500 mg BID, Day 4, Predose): 0.0601 µg/mL | Free plasma concentration, Maximum ([5]; 1500 mg BID, Day 4, Predose): 1330 ng/mL | Free plasma concentration, Mean ([5]; 1500 mg BID, Day 4, Predose): 618 ng/mL | Free plasma concentration, Minimum ([5]; 1500 mg BID, Day 4, Predose): 308 ng/mL | Pharyngeal concentration, Maximum ([5]; 1500 mg BID, Day 4, Predose): 0.165 µg/mL | Pharyngeal concentration, Mean ([5]; 1500 mg BID, Day 4, Predose): 0.0330 µg/mL | Pharyngeal concentration, Minimum ([5]; 1500 mg BID, Day 4, Predose): 0.00275 µg/mL | Rectal concentration, Maximum ([5]; 1500 mg BID, Day 4, Predose): 36.30 µg/mL | Rectal concentration, Mean ([5]; 1500 mg BID, Day 4, Predose): 6.04 µg/mL | Rectal concentration, Minimum ([5]; 1500 mg BID, Day 4, Predose): 0.0678 µg/mL | discontinuations due to adverse events (AEs) ([5]; oral 1,500 mg BID for 5 days, uUTI participants): no discontinuations due to adverse events | urine Ctau exposures ([5]; uUTI patients, 1500 mg BID, from Day 3 onwards): 322 to 352 µg/mL | minimum gepotidacin urine concentrations ([5]; uUTI patients, remained above MIC over the 12-hour dosing interval): > 4 µg/mL | MIC (NG clinical isolate [1]; read-out: gepotidacin MIC): 1 µg/mL (≈ 2.23 µM) | MIC (NG clinical isolate [1]; read-out: gepotidacin agar MIC): 1 µg/mL (≈ 2.23 µM) | MIC (NG clinical isolate [6]): 0.5 µg/mL (≈ 1.11 µM) | doses preventing amplification of resistance within the system (NG isolate; gepotidacin-resistant subpopulation on Day 7): ≥ 4.5 g | total daily doses that prevented resistance amplification (NG isolate; including 2 doses of 3g administered 8 or 12 hours apart): ≥ 4500 mg | doses sterilizing the system (NG isolate; over the seven-day period, simulated single oral doses 0.75 to 12 g): ≥ 4.5 g | tolerability ([7]; 1500 mg oral single dose, adults and adolescents, few mild GI AEs): generally well tolerated | maximum concentration (Cmax), adolescents compared to adults [7, 10]: similar | median area under the curve (AUC), adolescents compared to adults [7, 10]: slightly higher | AUC following the second dose, adolescents versus adults ([7]; Period 3, Q6h regimen): higher | Cmax following the second dose, adolescents versus adults ([7]; Period 3, Q6h regimen): similar | subjects above the value of potential clinical concern, observed ([7]; adolescents Q6h, 3000 mg x 2 oral doses): 58% | subjects above the value of potential clinical concern, observed ([7]; adults Q6h, 3000 mg x 2 oral doses): 46% | subjects above the value of potential clinical concern, observed ([7]; adults Q12h, 3000 mg x 2 oral doses): 15% | AUC0-t exposures following the first dose, Q12 versus Q6h ([7]; adults, 3000 mg dose level): similar | accumulation ratios, Q6h as compared to Q12h ([7]; adults, 3000 mg x 2 oral doses): Higher | safety issues related to QT or AchE-I ([7]; in vivo): No observed safety issues | participants who failed therapy at the urogenital body site (urogenital NG; Phase II study, total): 3 | microbiological successes (bacterial eradication) (urogenital NG; of the 8 participants with D86N-positive baseline urogenital NG isolates): 5 | efficacy (bacterial eradication) against urogenital infection caused by NG (urogenital NG; single oral dose 1.5g (1500 mg)): ≥ 95% | efficacy (bacterial eradication) against urogenital infection caused by NG (urogenital NG; single oral dose 3g (3000 mg)): ≥ 95% | baseline gepotidacin MIC (urogenital NG isolates; 2 microbiological successes with D86N-positive baseline organisms): 1 µg/mL | TOC gepotidacin MICs (urogenital NG isolates; 2 posttreatment isolates that had become resistant): ≥ 32 µg/mL
